Assays:
Format in all cases: cell-based
[1] = biological target: T1, SLC7A11 (Homo sapiens, UniProt Q9UPY5); assay: total intracellular selenium levels after selenite supplementation; conditions: knockout of SLC7A11
T1 construct: endogenous in cells
T1 sequence (Q9UPY5 1-501): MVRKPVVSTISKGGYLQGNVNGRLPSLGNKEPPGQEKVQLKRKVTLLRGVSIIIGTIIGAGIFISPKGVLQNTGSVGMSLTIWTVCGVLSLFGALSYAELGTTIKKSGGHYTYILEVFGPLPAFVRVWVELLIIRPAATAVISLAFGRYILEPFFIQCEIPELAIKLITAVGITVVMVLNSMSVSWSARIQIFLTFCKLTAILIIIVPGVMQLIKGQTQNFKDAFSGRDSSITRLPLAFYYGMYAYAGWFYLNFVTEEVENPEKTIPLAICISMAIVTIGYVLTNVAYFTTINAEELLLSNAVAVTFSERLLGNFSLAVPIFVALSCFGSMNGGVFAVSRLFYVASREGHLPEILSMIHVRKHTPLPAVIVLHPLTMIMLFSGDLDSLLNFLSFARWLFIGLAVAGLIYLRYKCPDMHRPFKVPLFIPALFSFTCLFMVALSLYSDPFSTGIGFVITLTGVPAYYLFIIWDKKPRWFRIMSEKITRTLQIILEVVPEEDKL
T1 sequence (P08195 1-529 partner): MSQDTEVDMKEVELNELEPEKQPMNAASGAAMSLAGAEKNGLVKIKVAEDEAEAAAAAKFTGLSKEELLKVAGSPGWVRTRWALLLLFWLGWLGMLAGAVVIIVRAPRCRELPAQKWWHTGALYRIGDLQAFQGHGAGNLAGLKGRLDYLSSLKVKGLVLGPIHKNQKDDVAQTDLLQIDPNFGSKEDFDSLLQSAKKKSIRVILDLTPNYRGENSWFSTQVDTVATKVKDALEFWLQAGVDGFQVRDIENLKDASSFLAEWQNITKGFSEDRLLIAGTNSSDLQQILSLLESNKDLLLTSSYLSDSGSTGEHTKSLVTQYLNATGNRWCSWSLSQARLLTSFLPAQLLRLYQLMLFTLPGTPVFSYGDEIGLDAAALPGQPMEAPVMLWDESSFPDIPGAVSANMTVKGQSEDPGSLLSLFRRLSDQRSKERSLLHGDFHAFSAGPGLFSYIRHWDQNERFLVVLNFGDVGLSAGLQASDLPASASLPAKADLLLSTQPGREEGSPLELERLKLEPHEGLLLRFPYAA
Excerpt: SLC7A11 was 5.5-fold enriched in SEPHS2-sensitive cell lines (FIG. 4C).

[2] = system: U251 cells; assay: CRISPR/Cas9 screen of candidate selenium transporters: toxicity of 12 μM selenite; conditions: both guides against SLC7A11, U251 cells
Experimental: We compared the cells that are sensitive to SEPHS2 KO vs those that are not sensitive to identify key drivers of selenide production. We examined these lines for susceptibility to high, toxic doses of selenite as it is an abundant and bioavailable form of selenium. We observed a strong correlation between susceptibility to high-dose selenite and to SEPHS2 KO (FIG. 4A). […] Two guides per candidate transporter were knocked out in U251 cells and effects on the toxicity of 12 μM selenite were examined.

[3] = system: GPX4 and SEPHS2; assay: selenoprotein expression after selenite supplementation; conditions: supplementation with selenite to media
[4] = system: U251 GBM cell line; assay: selenite treatment in conjunction with SEPHS2 KO (growth); conditions: 12 uM selenite; growth normalized to SEPHS2 KO cells
Experimental: FIGS. 2A-D provide evidence that SEPHS2 plays a detoxifying role in U251 GBM cell line. (A) Knockdown of either SEPHS2 or SEPSECS can block selenoprotein expression. (B) However, only SEPHS2 KO has significant toxicity. (C) Model for ‘pushing’ toxicity in which if SEPHS2 plays a detoxifying role, its KO should synergize with increased selenited input. (D) Synergy is indeed seen with 12 uM selenite treatment in conjunction with SEPHS2 KO. Growth is normalized to the already lower growth rate of the SEPHS2 KO cells, thus the bars in asterisks indicate (statistically significant) synergy.
We had classified SEPHS2 as a putative detoxifier as its substrate, selenide, is the most toxic form of selenium^12. The notion of SEPHS2 as a detoxifier has not previously been explored, and SEPHS2 is simply known for its enzymatic role (which cannot be replaced by its isoform, SEPHS1^13) as an intermediate step in producing selenocysteine for selenocysteinyl-tRNA production. The selenocysteine producing pathway is a simple and linear pathway starting from dietary […]—or […] or other inorganic forms which can be converted to selenite, selenite being the most common form^14,15. Selenite is imported and converted through in an unclear manner to form selenide, which is then metabolized by SEPHS2 to form selenophosphate, accompanied by ATP hydrolysis. […]

O=[Se](O)O [selenite]
total intracellular selenium due to supplemented selenite [1]: prevented any increase | toxicity of high-dose selenite after knockout of SLC7A11 [2]: complete rescue | expression of selenoproteins GPX4 and SEPHS2 [3]: increased expression | growth with selenite in conjunction with SEPHS2 KO [4]: Synergy
